Laboratory results taken from the METLIN SMRT retention time set (Domingo-Almenara et al. 2019).

Test: gradient 5% acetonitrile 3 min, to 50% in 2 min, to 85% in 15 min, held 3 min, 100 µL/min
Conditions: column: Zorbax Extend-C18 2.1 x 50 mm; eluents: water / acetonitrile, 0.1% formic acid
Outline: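 Data were gathered over 3 months by HPLC coupled to a quadrupole time-of-flight mass spectrometer, operated in positive and negative ionization mode. Mixtures of ~100 pure standards ran on a Zorbax Extend-C18 column (2.1 × 50 mm, 1.8 μm) at 100 μL/min, with water and acetonitrile each containing 0.1% formic acid and dead and dwell volumes of 40 μL and 900 μL. Retention time was read from adduct peaks picked by computer and checked manually.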

Row | RP-LC retention time [s] | SMILES
1 | 779 | CC(Oc1cccc(Cl)c1)C(=O)NCC1CCOCC1 (stereo unspecified)
2 | 841 | CCCOc1ccc(CNC(=O)C2CCN(c3ncnc4c3oc3ccccc34)CC2)cc1
3 | 938 | CCCN(C)c1nccnc1OC1CCN(C(=O)C2CCCCC2)C1 (stereo unspecified)
4 | 740 | CCOCCCNC(=O)N1CCCC(C)(C(=O)NCc2ccc(C)cc2)C1 (stereo unspecified)
5 | 628 | COc1cn(CC(=O)Nc2ccccc2C)c(CSc2nc(C)cs2)cc1=O
6 | 708 | Cc1csc(-c2cc(S(=O)(=O)NCCCN3CCc4ccccc4C3)c(C)s2)n1
7 | 812 | CCCN1C(=O)C2CCC(=O)N2c2ccc(C(=O)NC(C)(C)CC)cc21 (stereo unspecified)
8 | 561 | CCCn1cc(-c2ccncc2)cc1C(=O)NC1CCN(Cc2ccccc2)CC1
9 | 740 | O=C(CCn1cnc2cc(-c3noc(-c4ccc(F)c(F)c4)n3)ccc21)N1CCOCC1
10 | 954 | Cc1nc(Cn2cccc2C(=O)Nc2ccc(C)c(Cl)c2)no1
11 | 571 | CCC(CN1CCOCC1)NC(=O)C1CCN(c2ccc(-c3cccs3)nn2)CC1 (stereo unspecified)
12 | 696 | COc1ccc(C2(C(=O)N3CCN(C(=O)N4C[C@H]5C[C@H](C4)[C@H]4CCCC(=O)N4C5)CC3)CC2)cc1
13 | 837 | Cc1nc(C)c(C(=O)Nc2cc(Cl)ccc2C)s1
14 | 1300 | CSc1ccc(Cl)c(-c2nc(-c3cccc(-c4ccnn4C)c3)no2)c1
15 | 766 | CCc1ccc(Nc2cc(C(=O)N3CCCCC3)nc3cc(OC)c(OC)cc23)cc1
16 | 852 | O=C(NCCC1CCN(S(=O)(=O)c2ccc(F)cc2)CC1)NCc1ccc(F)cc1
17 | 756 | Cc1csc(NC(=O)C2CCCN(c3ncnc4c3nc3n4CCCCC3)C2)n1 (stereo unspecified)
18 | 691 | O=C(CCc1c(-c2ccc(F)cc2)nc2ccccn12)Nc1ccccc1C(F)(F)F
19 | 846 | CC(=O)c1ccc(NC(=O)Cn2cc(-c3ccccc3)c3ncn(C4CC4)c(=O)c32)cc1
20 | 570 | Cc1noc(C)c1S(=O)(=O)N1CCc2nc[nH]c2C1
21 | 785 | Cc1ccc(NC(=O)Cn2ccc3sccc3c2=O)cc1F
22 | 544 | O=C(NCCc1ccncc1)C1CN(C(=O)COc2ccccc2F)C1
23 | 642 | c1ccc(-c2ccc(CNCC3CCCO3)o2)cc1 (stereo unspecified)

Row | RP-LC retention time [s] | SMILES
24 | 842 | O=C(NCc1ccccc1)c1ccc(NC(=O)C2CCC2)cc1N1CCOCC1
25 | 957 | O=C(CCc1nc(-c2ccc(N3CCCC3)cc2)no1)N1CCN(c2ncccn2)CC1
26 | 1110 | Cc1ccc(NC(=O)Cn2c(=O)cc(-c3nc(C(C)C)no3)c3ccccc32)c(Cl)c1
27 | 778 | COc1ccccc1NC(=O)C1CC(=O)N(c2ccc3c(c2)CCN3C(=O)C2CC2)C1 (stereo unspecified)
28 | 714 | O=C(Nc1nnc(-c2ccc(C(F)(F)F)cc2)o1)C1CC1
29 | 795 | CCc1cc(C(=O)Nc2cc(OC)cc(OC)c2)nc2cc(-c3ccco3)nn12
30 | 604 | CC(C)NC(=O)c1ccnn1C
31 | 768 | COc1ccc(OC)c(S(=O)(=O)N2CCCC(C(=O)NC(C)(C)C)C2)c1 (stereo unspecified)
32 | 826 | Cc1cccc(-c2nnc(C)c(N3CCc4ccccc4C3)n2)c1
33 | 841 | CCn1cc(S(=O)(=O)N2CCC(c3noc(COCC4CC4)n3)CC2)cn1
34 | 973 | COc1ccc(C2C(C(=O)N3CCOCC3)=C(C)NC3=C2C(=O)CC(C)(C)C3)c(OC)c1 (stereo unspecified)
35 | 905 | CCCCC(=O)NC1=C(C(=O)OC)SCC1
36 | 753 | Cc1ccccc1CNC1=NCCNC12CCN(S(=O)(=O)c1ccc(Cl)cc1)CC2
37 | 811 | COc1ccc(NC(=O)Cn2ccc3ccc(-c4nnc(C)o4)cc32)cc1Cl
38 | 856 | CC1CCCN(c2ccc(-c3noc(CN4CCSCC4)n3)cn2)C1 (stereo unspecified)
39 | 705 | CC(C)CC(=O)N1CCCC(c2nc(CNC(=O)C(C)C)cs2)C1 (stereo unspecified)
40 | 977 | C#CCSc1nc2ccccc2c2nc(-c3ccncc3)nn12
41 | 721 | CC(C)n1cnc(S(=O)(=O)N2CCC(C(=O)Nc3ccc4c(c3)OCCO4)CC2)c1
42 | 1160 | CCCN1C(=O)COc2ccc(-c3csc(NC(=O)c4cccc(Br)c4)n3)cc21
43 | 782 | Cc1noc2nc(C)n(CC(=O)NCC(C)c3ccccc3)c(=O)c12 (stereo unspecified)
44 | 934 | COc1cccc(CNC(=O)C2(C)CCCN(C(=O)Nc3ccccc3C(F)(F)F)C2)c1 (stereo unspecified)
45 | 778 | CCOC(=O)c1sc(NC(=O)Cn2c(=O)oc3ccccc32)nc1C
46 | 651 | CCN(CC)CCNc1ncnc2onc(-c3cc(F)cc(F)c3)c12

Row | RP-LC retention time [s] | SMILES
47 | 803 | CCNc1nc(C)cc(N2CCN(S(=O)(=O)c3cc(C(C)(C)C)ccc3OC)CC2)n1
48 | 565 | CCCCc1ccc(NC(=O)N2CCC3(C2)c2nc[nH]c2CCN3C)cc1 (stereo unspecified)
49 | 612 | CCCn1ccc2oc(C)c(C(=O)N3CCN(C4CCCCC4)CC3)c2c1=O
50 | 1150 | Cc1ccc(-c2nc(-c3cccc(-c4ccn[nH]4)c3)no2)cc1C
51 | 802 | CCC(=O)N1CCc2sc(C(=O)NCc3ccc(Cl)cc3)cc2C1
52 | 883 | Cc1cccc(CNC(=O)Cn2c(C)cc(-c3nnc(C4CCC4)o3)c2C)c1
53 | 644 | CCC(=O)N(C)CCc1noc(-c2ccc(C(=O)NCCOC)cc2)n1
54 | 946 | Cc1cccc(NS(=O)(=O)c2cn(C(C)C)c3ncccc23)c1C
55 | 550 | O=C(NCCc1ccncc1)c1ccc2c(c1)ncn2-c1ccccc1
56 | 765 | Cc1cccc(-c2nnc(C)c(N3CCCCC3C)n2)c1 (stereo unspecified)
57 | 587 | Cc1cc2n(n1)CCCN2Cc1ccc(C(=O)NCCCN2CCCC2=O)cc1
58 | 840 | CCOC(=O)C1C(=O)C=C(c2cccc(NS(C)(=O)=O)c2)CC1c1ccccc1F (stereo unspecified)
59 | 882 | O=C(Cn1cccc1-c1nnc(-c2ccccc2)o1)NCc1ccccc1
60 | 571 | COC(=O)c1ccc(CN2CCN(c3cnn4c(C5CC5)nnc4c3)CC2)cc1
61 | 1190 | CCCCN1C(=O)C(C)(C(=O)N2CCN(c3ccccc3F)CC2)Oc2cccnc21 (stereo unspecified)
62 | 976 | CC(C)c1ccc(NC(=O)C2CCCN(c3ncnc4c3oc3ccccc34)C2)cc1 (stereo unspecified)
63 | 598 | Cc1[nH]c(C(=O)N2CCCC(C(=O)NCCN3CCN(C)CC3)C2)c(C)c1C(=O)OC(C)C (stereo unspecified)
64 | 699 | COc1ccccc1N1CCN(C(=O)c2cn(-c3ccc(NC(=O)C4CC4)cn3)cn2)CC1
65 | 901 | CCn1cc(C(=O)Nc2ccc(C)c(F)c2)c(S(=O)(=O)N2CCSCC2)n1
66 | 816 | Cc1nnc(C2CCCCCN2S(=O)(=O)c2ccccc2F)o1 (stereo unspecified)
67 | 756 | CCOC(=O)c1cnc2nc(C)ccc2c1Nc1cccc(Br)c1
68 | 906 | Cn1nc(-c2nc(C3CC3)no2)c2c1CCN(C(=O)c1cccc(C(F)(F)F)c1)C2
69 | 876 | Cc1ccc(CN2C(=O)NC3(CCN(C(=O)COc4ccc(C)cc4)CC3)C2=O)cc1

Row | RP-LC retention time [s] | SMILES
70 | 638 | CSc1cccc(NC(=O)N2CCN(C3=CC4=NC(C)CN4C=N3)CC2)c1 (stereo unspecified)
71 | 714 | Cc1oc(C2CCN(C(=O)Nc3ccc(Cl)cc3F)CC2)nc1C(=O)N(C)C
72 | 579 | OC1(c2ccccn2)CCOC2(CCN(Cc3ccc(Cl)cc3F)CC2)C1 (stereo unspecified)
73 | 668 | Cc1cc(NC(=O)c2ccco2)c2cc(F)cc(F)c2n1
74 | 822 | Cc1ccc(Cn2nnc3cc(C(=O)N4CCN(c5ncccn5)CC4)ccc32)cc1
75 | 922 | COc1cccc(CC(=O)Nc2nnc(SCc3nnc(-c4ccccc4C)o3)s2)c1
76 | 897 | CCOc1ccc2nc(C(=O)NC3CCCCC3)cn2n1
77 | 606 | Cc1nnc(-c2coc(S(=O)(=O)N3CCN(c4ccccn4)CC3)c2)o1
78 | 842 | Cc1ccc(NC(=O)C2CC(=O)N(CCc3c[nH]c4ccc(C)cc34)C2)c(C)c1 (stereo unspecified)
79 | 683 | CC(C)(C)c1ccc(S(=O)(=O)N2CCc3nc[nH]c3C2)cc1
80 | 858 | Cc1cc(-c2nnc(-c3ccco3)o2)c(C)n1CC(=O)Nc1ccc(F)cc1
81 | 1240 | COC(=O)c1ccc2c(=O)n(-c3ccccc3)c(N3CCCCCC3)nc2c1
82 | 982 | COc1ccc(NC(=O)C2CCCN(c3nc4ccccc4nc3OC)C2)cc1OC (stereo unspecified)
83 | 615 | CCC(C(=O)NCc1cccnc1)n1c2ccccc2c2cnn(C)c(=O)c21 (stereo unspecified)
84 | 1110 | CCSc1nc2ccc(NS(=O)(=O)c3ccc(C)cc3C)cc2s1
85 | 734 | O=C(Cc1csc(NC(=O)c2cnccn2)n1)Nc1nc2ccccc2s1
86 | 811 | Cc1nn(-c2cc(N3CCCCC3)ncn2)c(C)c1CCC(=O)NCc1ccco1
87 | 914 | Cc1csc(-c2cc(S(=O)(=O)NC(C)(C)C)c(C)n2C)n1
88 | 548 | CCNC(=O)N1CCOc2ccc(N(C)C)cc2C1
89 | 985 | Cc1nc2c(sc3nc(-c4ccccc4)ccc32)c(=O)n1CC(=O)Nc1ccc2c(c1)OCO2
90 | 894 | O=C(Nc1cc(-c2ccccn2)no1)c1cccc(Br)c1
91 | 658 | COC(=O)CNC(=O)C1COc2ccc(NC(=O)C(C)C)cc2C1 (stereo unspecified)
